“And” between values parts separate entries of the source, which are not always exact repeats. Equal entries are not always repeated. Where two headings read alike, the source gives them in different places.
How the values were obtained:
Type in all cases: physicochemical
[1] = Fluorescing of the HA-MTX conjugate upon irradiation with light at specified wavelengths (Example 1); parameters: key: rated “+” when strong emission was observed after the irradiation; rated “−” when the emission after the irradiation was not different from the emission before the irradiation
Procedure: The HA-MTX conjugate obtained in Production 1 was dissolved in 0.9% NaCl containing 2 mM phosphate buffer (pH 7.3) to give a concentration of 9.9 mg/ml in terms of HA and the solution was irradiated with light at varying wavelengths (260 nm, 310 nm, 360 nm, and 405 nm) using a fluorescence detector for liquid chromatography (product of Hitachi, Ltd.; fluorescence detector of model F1050) to observe the gelation and fluorescing of the conjugate. To evaluate the gelation, the surface of the sample solution was pierced with a spatula and visually checked for the formation of an interface as the result of gelation. To observe fluorescing, the sample was irradiated with exciting light and the state of light emission from the sample was observed by direct visual checking before and after the irradiation; the result was rated “+” when strong emission was observed after the irradiation but rated “−” when the emission after the irradiation was not different from the emission before the irradiation.

[2] = Effect of photostabilizers on the excitation spectra of the HA-MTX conjugate (Example 4(1)); conditions: fluorescence at 458 nm
Procedure: Various photostabilizers (methyl p-hydroxybenzoate (methyl paraben), salicylic acid Na, thiosulfuric acid Na, and N-acetyltryptophan) were each dissolved in a preparation buffer (0.9% NaCl containing 2 mM phosphate buffer (pH 7.4)) to give a concentration of 9 mg/ml (but 0.9 mg/ml in the case of methyl paraben) and thereafter filtered aseptically by passage through a 0.2-μm filter (Millex GV). […] The test samples and the control were irradiated with light at 300-480 nm and the intensity of fluorescence at 458 nm was measured.

[3] = Photostability test with additional light-shielding film LUMICOOL 1905 (Example 6); conditions: for Molecular weight (×10^4), irradiation time 0 h / Molecular weight (×10^4), irradiation time 150 h / Molecular weight (×10^4), irradiation time 300 h / Percent Conjugation (%), irradiation time 0 h / Percent Conjugation (%), irradiation time 150 h / Percent Conjugation (%), irradiation time 300 h: vial wrapped with LUMICOOL 1905;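 as to all read-outs here: molecular weight and drug conjugation percentage of the test conjugate, both determined by the method given for the first production procedure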
[4] = Photostability test in glass vials not shielded from light: gelation, molecular weight, percent conjugation of MTX (Example 4(2))
Procedure: Various photostabilizers (methyl p-hydroxybenzoate (methyl paraben), salicylic acid Na, thiosulfuric acid Na, thioglycolic acid Na, N-acetyltryptophan, and tryptophan) were each dissolved in a preparation buffer (0.9% NaCl containing 2 mM phosphate buffer, pH 7.4) to give a concentration of 1 or 10 mg/ml and thereafter filtered aseptically by passage through a 0.2-μm filter (Millex GV). A powder of the HA-MTX conjugate prepared in accordance with Production 1 was metered aseptically and dissolved in the filtered, photostabilizer-containing preparation buffer to give a concentration of 10 mg/mL; the thus prepared solutions were used as test samples. To prepare a control solution, the HA-MTX conjugate was dissolved in a photostabilizer-free preparation buffer at a concentration of 10 mg/mL.
The thus prepared solutions were put into glass vials not shielded from light and then irradiated with light.
The irradiation was so performed as to give an illuminance of 4000 Lux at 25° C. from a fluorescent lamp for use in a photostability test (TOSHIBA FL20S•D-EDL-D65) by means of a photostability tester (ETAC LABONIC LA110). After the lapse of specified periods (0 h, 25 h, 50 h, 100 h, 150 h, and 300 h) of irradiation, samples were taken and not only checked for gelation but also measured for the molecular weight of the HA-MTX conjugate and the percent conjugation of MTX (in the HA-MTX conjugate).
To evaluate the degree of gelation, the surface of each sample solution was pierced with a spatula and visually checked for the formation of an interface as the result of gelation. […] The apparatus used in gel filtration chromatography was equipped with OHpackSB-806HQ (Shodex) as a column, RI-71 (Shodex) as an […], and 875-UV (JASCO, detection wavelength: 304 nm) as a UV detector and analysis was conducted under the following conditions. Eluent: 50 mM sodium phosphate aqueous solution (pH 6.0); elution rate: 0.6 mL/min; column temperature: 40° C. By the above-described gel filtration chromatography, the elution times of the conjugate of interest were determined and the molecular weight of the same conjugate was determined from the relationship between the elution times and molecular weights of standard substances. As the standard substances, hyaluronic acid samples were prepared in varying molecular weights and their accurate values were calculated by the limiting viscosity method before it was used.

[5] = additive 1 mg/ml, 4000 Lux, 25° C., not shielded from light
[6] = additive 10 mg/ml, 4000 Lux, 25° C., not shielded from light

MTX-α-PhePhe-NHC2H4NH-HA [HA-MTX conjugate]
Fluorescence ([1]; irradiation at 260 nm): − | Fluorescence ([1]; irradiation at 310 nm): − | Fluorescence ([1]; irradiation at 360 nm): + | Fluorescence ([1]; irradiation at 405 nm): + | main excitation wavelengths ([2]; control solution 1 mg/ml, no photostabilizer): 320-430 nm | excitation maximum wavelength (Ex λmax) [2]: 380 nm

O=C([O-])CS.[Na+] [Na thioglycolate, sodium thioglycolate]
Molecular weight (×10^4), irradiation time 0 h ([3]; additive 1 mg/mL): 163 ×10^4 | Molecular weight (×10^4), irradiation time 150 h ([3]; additive 1 mg/mL): 123 ×10^4 | Molecular weight (×10^4), irradiation time 300 h ([3]; additive 1 mg/mL): 44 ×10^4 | Percent Conjugation (%), irradiation time 0 h ([3]; additive 1 mg/mL): 2.1% | Percent Conjugation (%), irradiation time 150 h ([3]; additive 1 mg/mL): 2.2% | Percent Conjugation (%), irradiation time 300 h ([3]; additive 1 mg/mL): 2.2% | Molecular weight (×10^4), irradiation time 0 h ([3]; additive 10 mg/mL): 181 ×10^4 | Molecular weight (×10^4), irradiation time 150 h ([3]; additive 10 mg/mL): 170 ×10^4 | Molecular weight (×10^4), irradiation time 300 h ([3]; additive 10 mg/mL): 157 ×10^4 | Percent Conjugation (%), irradiation time 0 h ([3]; additive 10 mg/mL): 2.1% | Percent Conjugation (%), irradiation time 150 h ([3]; additive 10 mg/mL): 2.1% | Percent Conjugation (%), irradiation time 300 h ([3]; additive 10 mg/mL): 2.2% | suppressing drops in the molecular weight and percent conjugation ([4]; added at 10 mg/ml, not shielded from light): considerably effective in suppressing drops in the molecular weight and percent conjugation even when the time of irradiation exceeded 100 hours | Molecular weight (×10^4), irradiation time 0 h [4, 5]: 163 ×10^4 | Molecular weight (×10^4), irradiation time 25 h [4, 5]: 136 ×10^4 | Molecular weight (×10^4), irradiation time 50 h [4, 5]: 97 ×10^4 | Molecular weight (×10^4), irradiation time 100 h [4, 5]: 8 ×10^4 | Molecular weight (×10^4), irradiation time 150 h [4, 5]: 5 ×10^4 | Molecular weight (×10^4), irradiation time 300 h [4, 5]: 2 ×10^4 | Percent Conjugation (%) of MTX, irradiation time 0 h [4, 5]: 2.1% | Percent Conjugation (%) of MTX, irradiation time 25 h [4, 5]: 2.2% | Percent Conjugation (%) of MTX, irradiation time 50 h [4, 5]: 2.2% | Percent Conjugation (%) of MTX, irradiation time 100 h [4, 5]: 1.4% | Percent Conjugation (%) of MTX, irradiation time 150 h [4, 5]: 1.0% | Percent Conjugation (%) of MTX, irradiation time 300 h [4, 5]: 0.4% | Molecular weight (×10^4), irradiation time 0 h [4, 6]: 181 ×10^4 | Molecular weight (×10^4), irradiation time 25 h [4, 6]: 166 ×10^4 | Molecular weight (×10^4), irradiation time 50 h [4, 6]: 169 ×10^4 | Molecular weight (×10^4), irradiation time 100 h [4, 6]: 163 ×10^4 | Molecular weight (×10^4), irradiation time 150 h [4, 6]: 154 ×10^4 | Molecular weight (×10^4), irradiation time 300 h [4, 6]: 5 ×10^4 | Percent Conjugation (%) of MTX, irradiation time 0 h [4, 6]: 2.1% | Percent Conjugation (%) of MTX, irradiation time 25 h [4, 6]: 2.2% | Percent Conjugation (%) of MTX, irradiation time 50 h [4, 6]: 2.3% | Percent Conjugation (%) of MTX, irradiation time 100 h [4, 6]: 2.0% | Percent Conjugation (%) of MTX, irradiation time 150 h [4, 6]: 2.2% | Percent Conjugation (%) of MTX, irradiation time 300 h [4, 6]: 1.4%

O=S([O-])([O-])=S.[Na+].[Na+] [Na thiosulfate, sodium thiosulfate]
Molecular weight (×10^4), irradiation time 0 h ([3]; additive 1 mg/mL): 181 ×10^4 | Molecular weight (×10^4), irradiation time 150 h ([3]; additive 1 mg/mL): 186 ×10^4 | Molecular weight (×10^4), irradiation time 300 h ([3]; additive 1 mg/mL): 180 ×10^4 | Percent Conjugation (%), irradiation time 0 h ([3]; additive 1 mg/mL): 2.3% | Percent Conjugation (%), irradiation time 150 h ([3]; additive 1 mg/mL): 2.2% | Percent Conjugation (%), irradiation time 300 h ([3]; additive 1 mg/mL): 2.2% | Molecular weight (×10^4), irradiation time 0 h ([3]; additive 10 mg/mL): 190 ×10^4 | Molecular weight (×10^4), irradiation time 150 h ([3]; additive 10 mg/mL): 188 ×10^4 | Molecular weight (×10^4), irradiation time 300 h ([3]; additive 10 mg/mL): 186 ×10^4 | Percent Conjugation (%), irradiation time 0 h ([3]; additive 10 mg/mL): 2.1% | Percent Conjugation (%), irradiation time 150 h ([3]; additive 10 mg/mL): 2.2% | Percent Conjugation (%), irradiation time 300 h ([3]; additive 10 mg/mL): 2.1% | stabilizing effects (suppressing effects on the drop in molecular weight and the drop in percent conjugation of MTX) ([3]; with light-shielding film LUMICOOL 1905): comparable to those obtained in the case where complete shielding of light was ensured by aluminum foil | Molecular weight (×10^4), irradiation time 0 h [4]: 190 ×10^4 and 181 ×10^4 | Molecular weight (×10^4), irradiation time 25 h [4]: 190 ×10^4 and 145 ×10^4 | Percent Conjugation (%) of MTX, irradiation time 0 h [4]: 2.1% and 2.3% | Percent Conjugation (%) of MTX, irradiation time 25 h [4]: 2.2% and 2.1% | Percent Conjugation (%) of MTX, irradiation time 50 h [4]: 2.3% and 1.5% | Percent Conjugation (%) of MTX, irradiation time 100 h [4]: 2.1% and 0.8% | Percent Conjugation (%) of MTX, irradiation time 150 h [4]: 2.2% and 0.6% | Percent Conjugation (%) of MTX, irradiation time 300 h [4]: 2.1% and 0.4% | suppressing drops in the molecular weight and percent conjugation [4]: considerably effective in suppressing drops in the molecular weight and percent conjugation even when the time of irradiation exceeded 100 hours

From US9072791B2, “Photostabilized pharmaceutical compositions” (DENKI KAGAKU KOGYO KABUSHIKI KAISHA, priority 2008, dated 2015)
